Experimental findings from patent US20210093582A1, “COMPOSITIONS FOR REDUCING TRIMETHYLAMINE-N-OXIDE AND RELATED THERAPEUTIC APPLICATIONS” (priority 2019, published 2021) are described below.

SMILES strings stand for the structures.

Type in all cases: in vivo, C57BL/6 (B6) mice
Experiment [1] in a line: Plasma TMAO level by LC-MS/MS. To be noted: female B6 mice, 1.3% carnitine water, 6 weeks. On the procedure:
(§1) Six-week-old female C57BL/6 (B6) mice were purchased from BioLASCO (Taipei, Taiwan) and were acclimatized for 1 week. Mice were fed ad libitum with experimental diets, LabDiet Rodent 5001. The animal use protocol listed below has been reviewed and approved by the Institutional Animal Care and Use Committee (NTU105-EL-00115). In the experiment, mice were randomly divided into four groups: normal diet, 1.3% carnitine water, 1.3% carnitine water with 0.05% pterostilbene diet (around 250 mg/kg/day), and 1.3% carnitine water with antibiotic cocktail for 6 weeks. Mice received a cocktail of oral antibiotics (vancomycin 500 mg/L, metronidazole 1 g/L, neomycin 1 g/L, and ampicillin 1 g/L in drinking water) for 6 weeks. […] At the end of the six-week study, mice were euthanized by CO2 asphyxiation.
LC-MS/MS was used to quantify plasma L-carnitine and TMAO in positive MRM mode, with the instrument water UPLC system (Acquity, Waters, Mildford, Mass., USA) and triple quadrupole mass spectrometer (TQS, Waters Micromass, Manchester, UK). […]
The MS parameters were set as follow: 100° C. for the source temperature, 650° C. for the desolvation temperature, 2 L/h for the cone gas flow, 600 L/h for the desolvation gas flow and 1500 V for the capillary voltage. Cone voltage was set a 10 V. Concentrations of each analyte in samples were determined by calibration curves.

The subject of a further experiment is VCAM-1. Nature of the experiment: Aortic vascular inflammation gene expression by qPCR (VCAM-1). The following applies: female B6 mice, 1.3% carnitine water, 6 weeks; mRNA normalized to GAPDH. On the procedure:
as §1
(§2) Hepatic and aortic RNA was extracted using TRIzol reagent. Phase separation was performed by adding 200 μl chloroform/1 mlTRIzol. […]
(§3) Quality of RNA and RNA concentrations were then quantified using NanoDrop 1000 spectrophotometer. […]
(§4) mRNA levels were determined by quantitative real-time PCR usingStepOnePlus Real-Time PCR system and SYBR Green master mix as compared to constitutively expressed gene (GAPDH) using the relative quantification method (ΔΔCt), Primer sequences for SYBR Green reactions were designed and synthesized by Mission Biotech.
Background: Real-time PCR tracks product formation cycle by cycle.

A further experiment has as its system cecal microbiota. Nature of the experiment: Cecal microbiota composition by 16S rRNA gene sequencing. The following applies: mouse cecum, 6 weeks. How it is done:
as §1
Microbial community composition was assessed by pyrosequencing 16S rRNA genes derived from mouse cecum (n=3 for each group). Total DNA was isolated and purified using InnuSPEED Stool DNA kit according to the manufacturer's instructions. The quality of DNA samples was assessed by NanoDrop 1000 spectrophotometer. DNA samples were sent to Biotools Co., Ltd.for 16S rRNA gene amplification, sequence library construction and sequencing. […] The library DNA was sequenced by IlluminaHiSeq2500 platform, and paired-end reads (250 bp) were generated.

Another experiment deals with E-selectin. Nature of the experiment: Aortic vascular inflammation gene expression by qPCR (E-selectin). The following applies: female B6 mice, 1.3% carnitine water, 6 weeks; mRNA normalized to GAPDH. How it is done:
as §1, §2, §3, §4

In a further experiment the test system is FMO3. Nature of the experiment: Hepatic FMO3 mRNA expression by RT-qPCR. To be noted: female B6 mice, 6 weeks; normalized to GAPDH. On the procedure: as §1, §2, §3, §4
A further experiment relates to TNF-α. Nature of the experiment: Aortic vascular inflammation gene expression by qPCR (TNF-α). To be noted: female B6 mice, 1.3% carnitine water, 6 weeks; mRNA normalized to GAPDH. On the procedure:
as §1, §2, §3, §4

Consider `C[N+](C)(C)C[C@H](O)CC(=O)[O-]` [Carnitine, L-carnitine], for which, in experiment [1], the “increase in circulating TMAO level compared to ND group” value is “up to 8 folds”. Further, the “expression of VCAM-1 in aortas” value with VCAM-1 is given as “significantly enhanced”. Also, in the experiment on cecal microbiota, the “Erysipelotrichia (Turibacter) proportion / relative abundance” value is listed as “increase”. In addition, the “expression of E-selectin in aortas” value in the experiment on E-selectin was “significantly enhanced”. In addition, the “hepatic FMO3 mRNA expression level” value in the experiment with FMO3 is “approximately three-fold increase”. Moreover, the “expression of TNF-α in aortas” value in the experiment on TNF-α is reported as “significantly enhanced”.
